Results as given in ChEMBL document CHEMBL1201862, “PubChem BioAssay data set” (2004).
The source made the active and inactive calls.

Key:
[1] = target: T1, Microphthalmia-associated transcription factor (Homo sapiens, UniProt O75030); experiment: reducers of TRPM1 reporter luminescence, concentration series – cell-based, SK-MEL-5, cherry-picked, set 3, MITF inhibitor project, dose response (AID 493073); assay type: functional;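 also: SK-MEL-5 melanoma cells with luciferase driven by the MITF target TRPM1 promoter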
T1 sequence (O75030 whole entry): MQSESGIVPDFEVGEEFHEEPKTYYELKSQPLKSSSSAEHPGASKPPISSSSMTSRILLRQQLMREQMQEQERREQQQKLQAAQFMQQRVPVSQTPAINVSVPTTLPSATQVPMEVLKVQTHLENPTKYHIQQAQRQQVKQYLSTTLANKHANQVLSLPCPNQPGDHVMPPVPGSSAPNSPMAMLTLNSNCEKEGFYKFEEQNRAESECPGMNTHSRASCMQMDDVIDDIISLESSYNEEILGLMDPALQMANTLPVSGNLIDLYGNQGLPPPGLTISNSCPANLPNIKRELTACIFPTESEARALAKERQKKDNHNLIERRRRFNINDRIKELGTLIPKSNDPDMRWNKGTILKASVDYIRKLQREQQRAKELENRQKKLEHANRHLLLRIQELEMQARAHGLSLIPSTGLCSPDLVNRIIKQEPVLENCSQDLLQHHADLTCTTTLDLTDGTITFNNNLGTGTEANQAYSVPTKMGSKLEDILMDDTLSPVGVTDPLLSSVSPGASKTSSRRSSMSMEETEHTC

[2] = target: T2, Replicative DNA helicase DnaB (Mycobacterium tuberculosis, UniProt P9WMR3); experiment: DnaB intein splicing inhibitors, dose response, biochemical, cell-free fluorescence (AID 449749); assay type: functional
T2 sequence (P9WMR3 whole entry): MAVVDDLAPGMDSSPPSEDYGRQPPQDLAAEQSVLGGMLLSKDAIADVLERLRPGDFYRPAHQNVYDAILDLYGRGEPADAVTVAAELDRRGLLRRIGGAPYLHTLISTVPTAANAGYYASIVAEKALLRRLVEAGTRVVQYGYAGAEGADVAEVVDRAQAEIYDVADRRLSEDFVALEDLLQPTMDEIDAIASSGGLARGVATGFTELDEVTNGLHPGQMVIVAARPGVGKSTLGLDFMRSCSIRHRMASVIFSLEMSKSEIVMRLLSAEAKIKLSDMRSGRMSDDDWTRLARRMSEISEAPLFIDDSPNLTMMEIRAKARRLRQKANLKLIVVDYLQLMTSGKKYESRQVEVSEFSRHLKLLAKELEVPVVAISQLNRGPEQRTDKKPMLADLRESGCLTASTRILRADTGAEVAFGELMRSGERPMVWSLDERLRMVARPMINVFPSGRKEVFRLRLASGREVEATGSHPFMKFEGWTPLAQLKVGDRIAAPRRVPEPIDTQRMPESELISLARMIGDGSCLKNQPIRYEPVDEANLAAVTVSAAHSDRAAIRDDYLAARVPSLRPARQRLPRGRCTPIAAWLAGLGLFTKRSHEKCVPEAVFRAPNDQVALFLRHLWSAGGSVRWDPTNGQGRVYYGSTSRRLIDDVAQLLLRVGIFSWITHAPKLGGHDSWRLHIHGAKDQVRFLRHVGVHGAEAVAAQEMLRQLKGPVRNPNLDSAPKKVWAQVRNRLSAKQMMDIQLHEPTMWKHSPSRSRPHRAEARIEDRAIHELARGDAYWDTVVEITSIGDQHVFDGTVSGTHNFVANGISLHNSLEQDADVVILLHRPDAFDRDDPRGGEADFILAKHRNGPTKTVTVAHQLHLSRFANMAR

Protein RecA = target: T3, Protein RecA (Mycobacterium tuberculosis, UniProt P9WHJ3); experiment: Fluorescence Cell-Free Homogeneous Dose Retest to Identify Inhibitors of RecA-Intein Splicing Activity. [Related pubchem assays (depositor defined):AID2097, AID2223, AID489010, AID492950]; assay type: functional
T3 sequence (P9WHJ3 whole entry): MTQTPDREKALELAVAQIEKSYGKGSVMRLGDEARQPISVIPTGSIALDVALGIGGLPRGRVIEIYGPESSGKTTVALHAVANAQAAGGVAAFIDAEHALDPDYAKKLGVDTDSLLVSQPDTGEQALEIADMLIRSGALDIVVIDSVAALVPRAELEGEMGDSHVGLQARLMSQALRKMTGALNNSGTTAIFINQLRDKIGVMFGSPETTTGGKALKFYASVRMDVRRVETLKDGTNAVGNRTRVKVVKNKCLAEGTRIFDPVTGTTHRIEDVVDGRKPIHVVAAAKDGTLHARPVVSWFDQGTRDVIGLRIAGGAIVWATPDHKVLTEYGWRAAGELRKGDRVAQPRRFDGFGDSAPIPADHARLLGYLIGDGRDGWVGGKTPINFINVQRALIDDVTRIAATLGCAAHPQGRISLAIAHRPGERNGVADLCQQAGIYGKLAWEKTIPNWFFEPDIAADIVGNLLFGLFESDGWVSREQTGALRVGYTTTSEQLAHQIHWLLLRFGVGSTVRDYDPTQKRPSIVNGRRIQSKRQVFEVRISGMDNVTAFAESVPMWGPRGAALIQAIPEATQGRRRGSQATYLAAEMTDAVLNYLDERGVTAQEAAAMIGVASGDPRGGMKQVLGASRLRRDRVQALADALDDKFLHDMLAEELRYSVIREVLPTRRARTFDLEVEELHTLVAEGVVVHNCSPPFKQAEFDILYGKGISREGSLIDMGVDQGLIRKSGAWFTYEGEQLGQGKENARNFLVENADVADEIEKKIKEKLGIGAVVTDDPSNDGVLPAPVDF

BJ [3] = experiment: BJ-TERT fibroblast viability loss – cell-based, RAS-independent, luminescence, dose response (AID 1933); assay type: functional; details: Homo sapiens
[4] = Luminescence Cell-Based Dose Response HTS to Identify Inhibitors of 5'UTR Stem-Loop Driven Prion Protein mRNA Translation in H4 Neuroglioblastoma Cells. [Related pubchem assays: 1827 (Project Summary), 1813 (Primary HTS)]; assay type: functional
[5] = alpha-synuclein stem-loop luciferase translation blockers – H4 neuroglioma cells, luminescence, confirmation (AID 1988); assay type: functional, cell-based
BJ [6] = experiment: cells; assay type: functional, cell-based; details: Homo sapiens
[7] = target: Luciferin 4-monooxygenase (Photinus pyralis, UniProt P08659); experiment: inhibition of purified Photinus pyralis luciferase – biochemical, luminescence, dose response (AID 1891)
Luciferin 4-monooxygenase, sequence (P08659 whole entry): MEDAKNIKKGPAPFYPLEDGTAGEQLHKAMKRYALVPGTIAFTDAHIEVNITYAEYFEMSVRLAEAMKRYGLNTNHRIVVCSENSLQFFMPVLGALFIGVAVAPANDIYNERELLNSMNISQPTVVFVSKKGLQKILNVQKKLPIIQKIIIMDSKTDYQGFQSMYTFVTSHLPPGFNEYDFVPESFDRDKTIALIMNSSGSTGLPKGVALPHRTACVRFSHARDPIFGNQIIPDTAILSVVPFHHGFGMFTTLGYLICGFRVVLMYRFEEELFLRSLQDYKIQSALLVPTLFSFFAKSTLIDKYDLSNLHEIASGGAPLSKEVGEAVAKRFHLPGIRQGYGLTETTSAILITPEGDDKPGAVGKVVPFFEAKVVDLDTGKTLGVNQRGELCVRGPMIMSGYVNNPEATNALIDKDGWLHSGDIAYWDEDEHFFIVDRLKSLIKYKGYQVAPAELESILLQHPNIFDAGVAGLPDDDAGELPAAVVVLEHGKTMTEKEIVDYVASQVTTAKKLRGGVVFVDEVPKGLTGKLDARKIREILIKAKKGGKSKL

[8] = Luminescence Cell-Based Dose Confirmation HTS to Identify Inhibitors of Platelet Dense Granule Release. [Related pubchem assays: 1663 (Primary HTS), 1678 (Summary of Project)]; assay type: functional
BJ [9] = experiment: BJ-TERT-LT-ST fibroblast viability loss – cell-based, RAS-independent, luminescence, dose response (AID 1935); assay type: functional; details: Homo sapiens;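 also: BJ fibroblasts immortalized with TERT plus LT and ST oncogenes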
[10] = DRD fibroblast viability loss – cell-based, non-viral oncogenic, luminescence, dose response (AID 1934); assay type: functional; details: Homo sapiens
[11] = A549 cell cytotoxicity, dose response, cytotoxicity control, plate reader, cherry-pick, antagonist series (AID 743412); assay type: functional, cell-based
[12] = toxicity toward HepG2 liver cells – cell-based, plate reader, cherry-pick, antagonist series, cytotoxicity control, dose response (AID 743416); assay type: functional
[13] = blockers of bursicon-stimulated LGR2 cAMP reporter – cell-based, HEK293, CRE-luciferase reporter, cherry pick, set 2, dose response (AID 743343); assay type: functional;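 also: transfected cells were stimulated with diluted bursicon conditioned medium after compound addition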
[14] = blockade of melanocortin 4 receptor signaling – cell-based, plate reader, cherry pick, counter-screen for LGR2 antagonist project, dose response (AID 743444); assay type: functional;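 also: transfected HEK 293 cells stimulated with alpha-MSH peptide; potency of inhibitors of the alpha-MSH evoked signal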
[15] = viability loss in HEK293 cells – cell-based, plate reader, cherry-picked samples, cytotoxicity control, dose response (AID 743446); assay type: functional
[16] = target: T4, DNA repair and recombination protein RAD54-like (Homo sapiens, UniProt Q92698); experiment: RAD54 Holliday junction migration blockers – biochemical, fluorescence, cherry-picked samples, dose series, confirmation (AID 651657); assay type: functional
T4 sequence (Q92698 whole entry): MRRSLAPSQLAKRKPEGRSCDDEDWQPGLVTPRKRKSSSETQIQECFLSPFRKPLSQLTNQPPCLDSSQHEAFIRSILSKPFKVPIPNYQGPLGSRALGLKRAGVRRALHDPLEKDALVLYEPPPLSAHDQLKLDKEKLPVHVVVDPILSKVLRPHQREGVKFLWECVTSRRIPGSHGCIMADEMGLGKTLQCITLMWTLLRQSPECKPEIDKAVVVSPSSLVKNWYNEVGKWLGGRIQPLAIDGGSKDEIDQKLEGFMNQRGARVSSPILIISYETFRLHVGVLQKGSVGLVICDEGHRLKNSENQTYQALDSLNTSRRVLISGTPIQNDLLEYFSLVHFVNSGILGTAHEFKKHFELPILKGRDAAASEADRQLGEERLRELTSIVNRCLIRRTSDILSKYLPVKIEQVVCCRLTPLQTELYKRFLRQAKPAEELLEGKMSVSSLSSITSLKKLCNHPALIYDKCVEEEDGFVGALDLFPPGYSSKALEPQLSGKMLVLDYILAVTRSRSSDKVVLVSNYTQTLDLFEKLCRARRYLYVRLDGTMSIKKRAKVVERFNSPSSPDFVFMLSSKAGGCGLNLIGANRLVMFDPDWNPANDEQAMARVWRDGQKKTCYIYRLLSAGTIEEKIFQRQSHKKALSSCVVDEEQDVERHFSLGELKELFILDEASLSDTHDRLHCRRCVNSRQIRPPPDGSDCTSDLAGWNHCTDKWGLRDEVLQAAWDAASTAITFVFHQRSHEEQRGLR

[17] = target: T5, Sentrin-specific protease 8 (Homo sapiens, UniProt Q96LD8); assay type: functional
T5 sequence (Q96LD8 whole entry): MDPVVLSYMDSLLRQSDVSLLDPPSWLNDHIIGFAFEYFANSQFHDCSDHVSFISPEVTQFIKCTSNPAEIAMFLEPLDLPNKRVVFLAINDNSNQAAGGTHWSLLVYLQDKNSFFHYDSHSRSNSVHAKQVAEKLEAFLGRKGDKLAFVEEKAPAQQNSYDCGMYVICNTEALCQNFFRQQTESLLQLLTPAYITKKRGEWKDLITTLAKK

[18] = target: T5, Sentrin-specific protease 8; assay type: functional; remark: listed apart in the source
[19] = growth inhibition of yeast DHODH-expressing 3D7 parasites – SYBR Green, dry powder samples, dose response (AID 1159570); assay type: functional, cell-based;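 also: parasite growth measured after 72 hours of compound exposure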
[20] = P. falciparum Dd2 growth inhibitors, dose response, SYBR Green, cherry-picked samples (AID 1159567); assay type: functional, cell-based
[21] = Dd2 malaria parasite growth inhibition potency – SYBR Green, dry powder samples, dose response (AID 1159566); assay type: functional, cell-based;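 also: potency for growth inhibition with lower SYBR green DNA signal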
[22] = growth inhibition of PfATP4-mutant resistant parasites – NITD609-resistant line, SYBR Green, dry powder, dose response (AID 1159571); assay type: functional, cell-based;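 also: parasites synchronized at ring stage by sorbitol before testing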

Which results are given for Cn1c(=O)c([N+](=O)[O-])c(-n2ccnc2)c2ccccc21?
AC50 [1]: 6.6 µM (active); AC50 [2]: 6.67 µM (active); EC50 (Protein RecA): 6.43 µM (active)

What does the source list for Cc1cccc(-c2nc3cc(NC(=O)C4CCCO4)ccc3o2)c1 (stereo unspecified)?
EC50 (BJ [3]): 23.3 µM (active); EC50 [4]: 9.83 µM (active); EC50 [5]: 9.78 µM (active); EC50 (BJ [6]): 19.8 µM (active); EC50 [7]: 1.51 µM (active); EC50 [8]: 1.57 µM (active); EC50 (BJ [9]): > 150 µM (not active); EC50 [10]: 17 µM (active); AC50 [11]: 43.3 µM (active); AC50 [12]: 33.8 µM (active); AC50 [13]: 9.84 µM (active); AC50 [14]: 6.37 µM (active); AC50 [15]: 26.9 µM (active)

For Cn1c2ccc(F)cc2c2ncn(CCCN(CCO)CCO)c(=O)c21, which AC50 [16] is on record?
The AC50 was 28 µM (active).

Which results are given for O=[N+]([O-])c1ccc(C=NN2CCOCC2)s1?
IC50 [17]: 31.9 µM (active); IC50 [18]: 49 µM (active)

Which AC50 [11] does the source give for C[C@@H]1CN([C@H](C)CO)C(=O)c2cccc(NC(=O)Nc3ccc(C(F)(F)F)cc3)c2O[C@@H]1CN(C)CC1CCCCC1 here?
The AC50 was 7.8 µM (active).

What about the AC50 [12] of the same compound?
Its AC50 is 9.17 µM (active).

What about the AC50 [13] of the same compound?
The AC50 was 21.7 µM (active).

What about the AC50 [14] of the same compound?
The AC50 was 7.5 µM (active).

What about the AC50 [15] of the same compound?
Its AC50 is 14 µM (active).

For C[C@@H]1CN([C@H](C)CO)C(=O)Cc2cc(NC(=O)CCC(F)(F)F)ccc2O[C@@H]1CN(C)CC1CCCCC1, which AC50 [11] is on record?
The AC50 was 47.9 µM (active).

What about the AC50 [12] of the same compound?
Its AC50 is > 52 µM (inactive).

And the AC50 [15]?
The AC50 was > 52 µM (inactive).

What does the source list for COc1ccc(NC(=O)N(C)C[C@H]2Oc3c(NC(=O)Nc4ccccc4)cccc3C(=O)N([C@@H](C)CO)C[C@H]2C)cc1?
AC50 [19]: 0.261 µM (active); AC50 [20]: < 0.3 µM (active); AC50 [21]: 0.167 µM (active); AC50 [22]: 0.2 µM (active)
